Measured values: patent US4439436A, “1,3-Dioxolo(4,5-G)quinoline compounds” (Sterling Drug Inc., priority 1982, dated 1984)
In brackets after ≈: the same amount, converted by molar mass. Like-named read-outs stand apart in the source and are kept apart here.

Columns and labels:
Escherichia coli Vogel [1] = test: in vivo antibacterial activity in mice infected with E. coli; design: species or system female mice; details: sc, 168 h
Procedure: (§1) The in vivo antibacterial activity of the compounds of the invention was determined in female mice, 18-20 grams each, by the following procedure:
(§2) Aqueous solutions of the compounds to be tested were prepared by dissolving the free acid form in dilute sodium hydroxide and diluting the solution with distilled water to the desired volume.
(§3) Cultures of Escherichia coli Vogel prepared in brain heart infusion broth, cultures of Klebsiella pneumoniae 39645 grown in tryptose phosphate broth with 5% rabbit serum diluted in the same broth were used to infect the mice as follows:
E coli: mice were inoculated intraperitoneally with 0.5 ml of the bacterial test inoculum (1.87×10^7 and 5×10^6 cells/ml respectively).
Mice infected with E. coli were medicated once (0.5 ml) one-half hour post infection, the test compound being administered by the subcutaneous (s.c.) route. Deaths were recorded daily for seven days.
(§4) Groups of ten animals each for four or five dose levels were thus treated and the number of survivors in each group recorded. The fifty percent protective dose values (PD50) were then calculated.

[2] = test system: Klebsiella pneumoniae 39645; test: in vitro antibacterial activity, serial dilution (MIC); type: cell-based
Procedure: (§5) The in vitro antibacterial activity was determined by conventional serial dilution procedures. Bacterial cultures were grown in tryptose phosphate broth or brain heart infusion broth (containing heat-inactivated normal horse serum for tests with S. pyogenes) overnight at 37° C. and subsequently diluted in double strength broth to provide bacterial inocula of about 2×10^5 cells/ml. Aqueous solutions of the compounds of the invention were prepared by dissolving the free acid form in 0.5 N sodium hydroxide. The solutions were diluted with sterile distilled water to 100 mcg/ml of compound in terms of the free acid. Serial two-fold dilutions of the compound stock solutions were prepared in water and 0.5 ml of each dilution was transferred to sets of tubes, one set for each bacterial inoculum. Each tube was then inoculated with 0.5 ml of the appropriate culture, resulting in a final bacterial concentration of about 1×10^5 cells/ml. The minimal inhibitory concentration (MIC), defined as the lowest concentration of the test compound to inhibit visible bacterial growth, was recorded after 18-20 hours of static incubation at 37° C.

[3] = test system: Streptococcus pyogenes C203; test: as above; type: cell-based; details: broth with heat-inactivated normal horse serum, 18-20 hours, 37° C., read-out: Minimal Inhibitory Concentration
Procedure: as §5

Proteus vulgaris 9920 = test: as above; type: cell-based
Procedure: as §5

[4] = test system: Staphylococcus aureus Smith; test: as above; type: cell-based; details: 18-20 hours, 37° C., about 1×10^5 cells/ml, read-out: Minimal Inhibitory Concentration
Procedure: as §5

[5] = test system: Pseudomonas aeruginosa MGH-2; test: as above; type: cell-based; details: MGH2, 18-20 hours, 37° C., about 1×10^5 cells/ml, read-out: Minimal Inhibitory Concentration
Procedure: as §5

Proteus mirabilis MGH-1 = test: as above; type: cell-based; details: MGH1
Procedure: as §5

Escherichia coli Vogel [6] = test: as above; type: cell-based
Procedure: as §5

[7] = test system: Klebsiella pneumoniae 39645; test: in vivo antibacterial activity in mice infected with K. pneumoniae; design: species or system female mice; details: Klebsiella pneumoniae, 39645, sc, 336 h; K. pneumoniae intramuscularly; s.c. 17 h and 1 h preinfection, 6 h postinfection, twice a day next three days; fourteen days; read-out: Protective Dose (PD50)
Procedure: as §1, §2, §3
K. pneumoniae: mice were inoculated intramuscularly in the right hind leg with 0.2 ml of the bacterial test inoculum (2.05×10^4 cells/ml).
Mice infected with K. pneumoniae were medicated at the following times: seventeen hours and one hour preinfection, six hours postinfection and twice a day for the next three days. The test compound was administered by the subcutaneous (0.2 ml) route. Deaths were recorded daily for fourteen days.
as §4

[8] = E. coli intraperitoneally, single s.c. dose one-half hour post infection, seven days, read-out: Protective Dose (PD50)
[9] = Klebsiella pneumoniae 39645, 18-20 hours, 37° C., about 1×10^5 cells/ml, read-out: Minimal Inhibitory Concentration
[10] = Proteus vulgaris 9920, 18-20 hours, 37° C., about 1×10^5 cells/ml, read-out: Minimal Inhibitory Concentration
[11] = Proteus mirabilis MGH-1, 18-20 hours, 37° C., about 1×10^5 cells/ml, read-out: Minimal Inhibitory Concentration
[12] = Escherichia coli Vogel, 18-20 hours, 37° C., about 1×10^5 cells/ml, read-out: Minimal Inhibitory Concentration
[13] = Proteus vulgaris, 9920, P. vulg., in vitro, read-out: MIC
[14] = Proteus mirabilis, P. mirab., in vitro, read-out: MIC
[15] = Escherichia coli, E. coli, in vitro, read-out: MIC

Compound	ED50 (Escherichia coli Vogel [1]; [8]) [mg/kg]	MIC [2, 9] [µg/mL]	MIC [3] [µg/mL]	MIC (Proteus vulgaris 9920; [10]) [µg/mL]	MIC [4] [µg/mL]	MIC [5] [µg/mL]	MIC (Proteus mirabilis MGH-1; [11]) [µg/mL]	MIC (Escherichia coli Vogel [6]; [12]) [µg/mL]	ED50 [7] [mg/kg]	ED50 (Escherichia coli Vogel [1]; in vivo against E. coli, read-out: PD50) [mg/kg]	MIC ([2]; Klebsiella pneumoniae, 39645, K. pneum., in vitro, read-out: MIC) [µg/mL]	MIC (Proteus vulgaris 9920; [13]) [µg/mL]	MIC (Proteus mirabilis MGH-1; [14]) [µg/mL]	MIC (Escherichia coli Vogel [6]; [15]) [µg/mL]
CCCNn1cc(C(=O)O)c(=O)c2cc3c(cc21)OCO3 [Example 14, 5,8-Dihydro-8-oxo-5-(propylamino)-1,3-dioxolo[4,5-g]quinoline-7-carboxylic acid]	141	> 7.8	> 62.5	3.9 (≈ 13.4 µM)	> 62.5	> 62.5	> 7.8	> 7.8	> 200	–	–	–	–	–
CCNn1cc(C(=O)O)c(=O)c2cc3c(cc21)OCO3 [Example 12, 5-(Ethylamino)-5,8-dihydro-8-oxo-1,3-dioxolo[4,5-g]quinoline-7-carboxylic acid]	7	1.95 (≈ 7.06 µM)	> 62.5	0.25 (≈ 0.905 µM)	> 15.6	> 62.5	1.95 (≈ 7.06 µM)	1 (≈ 3.62 µM)	50	–	–	–	–	–
CN(C=O)n1cc(C(=O)O)c(=O)c2cc3c(cc21)OCO3 [Example 7, 5-[(Formyl)methylamino]5,8-dihydro-8-oxo-1,3-dioxolo[4,5-g]-quinoline-7-carboxylic acid]	–	–	–	–	–	–	–	–	–	40	15.6 (≈ 53.8 µM)	15.6 (≈ 53.8 µM)	7.8 (≈ 26.9 µM)	31.3 (≈ 108 µM)
Nn1cc(C(=O)O)c(=O)c2cc3c(cc21)OCO3 [Example 2, 5-Amino-5,8-dihydro-8-oxo-1,3-dioxolo[4,5-g]quinoline-7-carboxylic acid]	–	–	–	–	–	–	–	–	–	–	–	3.9 (≈ 15.7 µM)	3.9 (≈ 15.7 µM)	7.8 (≈ 31.4 µM)
CNn1cc(C(=O)O)c(=O)c2cc3c(cc21)OCO3 [Example 9, 5,8-Dihydro-5-(methylamino)-8-oxo-1,3-dioxolo[4,5-g]quinoline-7-carboxylic acid]	3.3	1 (≈ 3.81 µM)	> 500	0.125 (≈ 0.477 µM)	3.9 (≈ 14.9 µM)	15.6 (≈ 59.5 µM)	0.25 (≈ 0.953 µM)	0.25 (≈ 0.953 µM)	28	–	–	–	–	–
